Consider one molecule from publication PMC4405831, “Mast cell regulation of Na-glutamine co-transporters B0AT1 in villus and SN2 in crypt cells during chronic intestinal inflammation” (BMC Gastroenterology, 2015).

For this assay, the system named is T1, B0AT1.
T1 construct: gene SLC6A19; native full-length transporter in brush border membrane vesicles from ileal villus cells; not purified
In words: 3H-glutamine uptake into villus BBMV, rapid filtration, […] s. It counts as biochemical, Oryctolagus cuniculus. Particulars: labelled compound; Na-dependent uptake (100 mM NaCl minus choline), pH 7.5, voltage clamped; normal (control) rabbits.

Regarding `NC(=O)CC[C@H](N)C(=O)O` [glutamine], the Km worked out at 24 ± 1.5 mM.
